Measurements published in patent publication US6428983B1, “Histone deacetylase as target for antiprotozoal agents” (Merck & Co., priority 1995, dated 2002).
Values belong to the compound of their own block, whether it stands above or below them.

Legend:
[1] = test system: histone deacetylase (E. tenella extract); test: Histone deacetylase inhibition assay (Assay 1), E. tenella extract; type: biochemical, Eimeria tenella
Description: (§1) The standard assay contained in a total volume of 40 μL: 400 nmol HEPES-sodium, pH 7.4, 100 pmol of the substrate [AcGly-Ala-Lys(ε-^14C-Ac)-Arg-His-Arg-Lys(ε-^14C-Ac)-ValNH2] (see Kervabon et al (1979) FEBS Letters 106: 93-96) having a specific activity of approx. 114 mCi/mmol, and a source of histone deacetylase (HDAase) activity. The amount of HDAase added was chosen such that ≦20% of the substrate was consumed during the assay. The reaction was initiated by enzyme addition and allowed to proceed for 60 min at 41°. At 60 min, the reaction was terminated by the addition of a 50% slurry of Amberlite® AG 50W×4 cation exchange resin, sodium form (200-400 mesh) in 25 mM sodium acetate buffer, pH 4.2 (200 μL). The resin binds both remaining substrate and the (partially) deacetylated peptidyl products. The quenched reaction was then incubated for at least 30 min at 25° with occasional mixing, diluted with additional 25 mM sodium acetate buffer, pH 4.2 (760 μL; final volume 1000 μL), incubated for a minimum of an additional 30 min at 25° with occasional mixing, and then centrifuged at 10,000×g for 1 min. An aliquot of the supernatant (800 μL) containing the enzymatically released ^14C-acetate was removed, mixed with Aquasol 2 liquid scintillation counter (LSC) cocktail (10 mL), and counted in a Beckman model LS-5801 LSC. […]

[2] = test system: histone deacetylase (chicken liver extracts); test: Histone deacetylase inhibition assay (Assay 1), chicken liver extract; type: biochemical; details: Assay 1, chicken liver extracts
Description: as §1

[3] = test system: histone deacetylase (chicken liver lysate); test: Competitive binding assay with 3H-N-desmethoxyapicidin, chick liver S100 lysate; details: 3H-N-desmethoxyapicidin ligand
Description: Chick Liver. Livers from 3-5 three week old chickens are collected, rinsed in ice cold phosphate buffered saline (pH 7.4), diced into small pieces and rinsed again 3-4 times with ice cold 50 mM N-2-hydroxyethylpiperazine-N′-2-ethanesulfonic acid (HEPES) (pH 7.4) containing 0.1 mM phenylmethanesulfonyl fluoride (PMSF). The tissue is then resuspended in HEPES buffer, homogenized in a polytron homogenizer and centrifuged at 3000×g for 10 min. The supernatant is then subjected to an additional 100,000 g centrifugation for 1 hour. The pellet and the floating layer of lipid are discarded and the supernatant, referred to as the chick liver S100 fraction, is retained for binding assays. After estimating the protein concentration, the supernatant (S100) is aliquoted and frozen at −80 C.
(§2) Each assay tube contains a final volume of 1 ml with 1.3 ng/ml of ^3H-N-desmethoxyapicidin, 150-200 μg of the appropriate S100 supernatant and concentrations of potential HDA inhibitors from 0.001-10 μg/ml.
(§3) (i) labeled substrate. […]
(§4) Stock solutions of potential HDA inhibitors (ii) are diluted into 50 mM HEPES/Triton® buffer to achieve a final concentration of test compound in the range of 0.001-10 μM. ^3H-N-desmethoxyapicidin is added to a final concentration of 1.3 ng/ml. […] The filter is then dried and counted in scintillant.

[4] = target: histone deacetylase (E. tenella lysate); test: Competitive binding assay with 3H-N-desmethoxyapicidin, E. tenella S100 lysate; details: 3H-N-desmethoxyapicidin ligand
Description: E. tenella oocysts. Approximately 2×10^9 E. tenella oocysts are suspended in 5 ml of PBS/0.1 mM PMSF, 4 mls of an equal mixture (vol/vol) of 4.0 and 1.0 mm glass beads is added. The glass bead-oocyst mixture is then shaken for 20 minutes to cause disruption of the oocysts. The efficiency of breakage is checked microscopically. The resulting homogenate is separated from the glass beads and centrifuged at 3000×g for 10 min. The supernatant is then subjected to an additional centrifugation at 100,000 g for 1 hr. The pellet is discarded and the supernatant, referred to as the E. tenella S100 fraction, is retained for binding assays. After estimating the protein concentration, the supernatant (S100) is aliquoted and frozen at −80 C.
as §2, §3, §4

E. tenella = test: In vitro antiparasitic activity against E. tenella; type: cell-based, Eimeria tenella
Excerpt: (1) Generally following the procedure described in Crane, Schmatz, Stevens, Habbersett and Murray. Eimeria tenella: in vitro development in irradiated bovine kidney cells.(1984) Parasitology 88: 521-530.

P. falciparum = test: In vitro antiparasitic activity against P. falciparum; type: cell-based
Excerpt: (2) Generally following the procedure described in Desjardins et al, “Quantitative Assessment of Antimalarial Activity In Vitro by a Semiautomated Microdilution Technique” Antimicrobial Agents and Chemotherapy 1979, 16:710-718.

HeLa cell histones = test: Histone acetylation state in HeLa cells (AUT gel electrophoresis); type: cell-based, human; details: HeLa cells treated 4 hrs, FIG. 1, relative to untreated cells
Description: About 2×10^7 HeLa cells growing at 37 C were treated with various compounds in the standard tissue culture medium (MEM containing 10% fetal calf serum) for 4 hrs. Cells were then removed from the flask by scraping in PBS in a total volume of about 10 mls. The cells were washed twice in PBS and resuspended in about 3 mls lysis buffer (Lysis buffer; 0.45% Nonidet® P-40, 10 mM tris, 10 mM NaCl, 5 mM MgCl, 0.1 mM EGTA, 0.1 mM PMSF). The suspension was mixed by vortexing for 10 seconds, incubated on ice for 15 minutes and nuclei were pelleted by centrifugation through a 1 ml cushion of 30% sucrose in lysis buffer at 1300×g for 10 minutes. The supernatant was discarded and the nuclei were then resuspended in 1.0 ml water. H2SO4 was added to a final concentration of 0.4M and the nuclear suspension was incubated on ice for 30 min. and then pelleted by centrifugation at 13,000×g for 10 minutes. The pellets were discarded, and ten volumes of ice cold acetone was added to the supernatant proteins and left overnight at −20° C. to precipitate soluble proteins. These proteins (predominantly histones) were pelleted by centrifugation at 10,000×g for 15 minutes at 4° C. and resuspended in AUT sample buffer (Sample buffer: 0.9M acetic acid, 0.02% w/v methyl green) in preparation for gel electrophoresis.
Acid urea triton (AUT) polyacrylamide gels were performed according to the methods of Alfageme et al (1974) J. Biol. Chem. 249, 3729, with modifications as described in Lennox and Cohen (Methods in Enzymology, 170, 532-549). For optimal resolution of HeLa cell and Plasmodium falciparum histones the separation gel contained 7.5M urea, 12% acrylamide, 0.38% Triton® X 100, 0.08% bis acrylamide, and 0.87M acetic acid. The loading gels contained 7.5M urea, 0.37% Triton X 100, 6% acrylamide, 0.04% bis acrylamide and 0.87M acetic acid. […] Gels were either stained with Coomassie Brilliant Blue R in 7% acetic acid, 20% methanol and then destained in 7% acetic acid and 20% methanol, or treated with Enlightening (from New England Nuclear), dried and radiolabel detected by fluorography.

P. falciparum histones = test: Histone acetylation state in P. falciparum (14C acetate labeling, AUT gel); type: cell-based; details: infected red blood cells, 14C sodium acetate, 2 hours, FIG. 2
Description: Acid urea triton (AUT) polyacrylamide gels were performed according to the methods of Alfageme et al (1974) J. Biol. Chem. 249, 3729, with modifications as described in Lennox and Cohen (Methods in Enzymology, 170, 532-549). For optimal resolution of HeLa cell and Plasmodium falciparum histones the separation gel contained 7.5M urea, 12% acrylamide, 0.38% Triton® X 100, 0.08% bis acrylamide, and 0.87M acetic acid. The loading gels contained 7.5M urea, 0.37% Triton X 100, 6% acrylamide, 0.04% bis acrylamide and 0.87M acetic acid. Gels were run in 1M acetic acid. Gels were pre-electrophoresed at 350V for 1 hour and run at 450V for 3.5 hours. Gels were either stained with Coomassie Brilliant Blue R in 7% acetic acid, 20% methanol and then destained in 7% acetic acid and 20% methanol, or treated with Enlightening (from New England Nuclear), dried and radiolabel detected by fluorography.
Approximately 1×10^9 P. falciparum infected red blood cells (about 60% parasitized) were resuspended in 10 ml of RPMI 1640 containing various concentrations of test compounds and 250 μCi ^14C sodium acetate and incubated at 37° C. for 2 hours. The cells were then washed 3 time with PBS and histones were prepared as described below.
Histones were prepared according to the method of Cary et al (1994) Parasitology Research, 80, 255-258. […]

IC50 in enzyme inhibition assay, E. tenella extract [1]: inactive
IC50 in enzyme inhibition assay, chicken liver extract [2]: inactive
IC50 in binding assay, chicken liver lysate [3]: no activity
IC50 [4]: > 1000 nM
IC50 in binding assay, E. tenella lysate [4]: no activity
IC50 against P. falciparum (P. falciparum): not active
SMILES: CC(/C=C/C(=O)O)=C\[C@@H](C)C(=O)c1ccc(N(C)C)cc1 [trichostatic acid]
minimum inhibitory concentration against E. tenella (E. tenella): not active

SMILES: C[C@@H]1NC(=O)[C@H]2CCCN2C(=O)[C@H](CCCCCC(=O)[C@@H]2CO2)NC(=O)[C@@H](C)NC1=O [HC-toxin]
Hyperacetylation of HeLa cell histones (shift in histone gel profile) (HeLa cell histones): cause a distinct shift in the histone gel profiles

SMILES: CC(/C=C/C(=O)NO)=C\[C@@H](C)C(=O)c1ccc(N(C)C)cc1 [trichostatin]
Hyperacetylation of HeLa cell histones (shift in histone gel profile) (HeLa cell histones): cause a distinct shift in the histone gel profiles
Hyperacetylation of P. falciparum histones (P. falciparum histones): cause hyperacetylation

SMILES: CCC(=O)CCCCC[C@@H]1NC(=O)[C@H]2CCCCN2C(=O)[C@H]([C@@H](C)CC)NC(=O)[C@H](Cc2cn(OC)c3ccccc23)NC1=O [apicidin, Apicidin]
Hyperacetylation of HeLa cell histones (shift in histone gel profile) (HeLa cell histones): cause a distinct shift in the histone gel profiles
Hyperacetylation of P. falciparum histones (P. falciparum histones): cause hyperacetylation
